Values of other authors as cited in patent US20140332438A1, “WATER-SOLUBLE MELOXICAM GRANULES” (Boehringer Ingelheim Vetmedica GmbH, priority 2002, published 2014).

Conditions: aqueous solution, according to EP-A-0 945 134

solubility in water: does not dissolve readily in water
Structure (SMILES): Cc1cnc(NC(=O)C2=C(O)c3ccccc3S(=O)(=O)N2C)s1 [meloxicam, 4-hydroxy-2-methyl-N-(5-methyl-2-thiazolyl)-2H-1,2-benzothiazine-3-carboxamide-1,1-dioxide]
